Reference: ChEMBL document CHEMBL3233011, “Structural modifications of CH(OH)-DAPYs as new HIV-1 non-nucleoside reverse transcriptase inhibitors” (Bioorg Med Chem, 2014)

Legend:
[1] = system: Human immunodeficiency virus 1; assay: Antiviral activity against HIV1 harboring RT K103N/Y181C double mutant infected in human MT4 cells assessed as inhibition of viral cytopathogenicity after 5 days by MTT assay; type: functional, organism-based; conditions: Human immunodeficiency virus 1, MT4, 120 h
[2] = Cytotoxicity against mock-infected human MT4 cells after 5 days by MTT assay; type: cell-based
[3] = system: Human immunodeficiency virus 1; assay: Antiviral activity against HIV1 3B infected in human MT4 cells assessed as inhibition of viral cytopathogenicity after 5 days by MTT assay; type: functional, organism-based; conditions: Human immunodeficiency virus 1, 3B, MT4, 120 h
[4] = system: Human immunodeficiency virus 2; assay: Antiviral activity against HIV2 ROD infected in human MT4 cells assessed as inhibition of viral cytopathogenicity after 5 days by MTT assay; type: functional, organism-based; conditions: Human immunodeficiency virus 2, ISOLATE ROD, MT4, 120 h
[5] = target: Human immunodeficiency virus type 1 reverse transcriptase (Human immunodeficiency virus 1, UniProt Q72547); assay: Inhibition of wild-type HIV1 reverse transcriptase p66/p51 after 40 mins by spectrophotometry
[6] = system: Human immunodeficiency virus 1; assay: Ratio of nevirapine EC50 to compound EC50 for HIV1 3B infected in human MT4 cells; type: functional
[7] = system: Human immunodeficiency virus 1; assay: Ratio of delaviridine EC50 to compound EC50 for HIV1 3B infected in human MT4 cells; type: functional

| Structure (SMILES) | EC50 [1] | CC50 at 120 h [2] | EC50 [3] | EC50 [4] | IC50 [5] | Ratio EC50 [6] | Ratio EC50 [7] |
| --- | --- | --- | --- | --- | --- | --- | --- |
| Cc1ccnc2c1NC(=O)c1cccnc1N2C1CC1 [NEVIRAPINE] | 0.901 µM | > 15 µM |  |  |  |  |  |
| CC(O)(c1ccc(Cl)cc1)c1ccnc(Nc2ccc(C#N)cc2)n1 (configuration not stated) | > 39 µM | 39 µM | 0.317 µM | > 39 µM |  |  |  |
| Cc1cnc(Nc2ccc(C#N)cc2)nc1C(C)(O)c1ccc(C(C)(C)C)cc1 (configuration not stated) | > 31.1 µM | 31.1 µM | 7.21 µM | > 31.1 µM |  |  |  |
| CC(O)(c1cccc(F)c1)c1ccnc(Nc2ccc(C#N)cc2)n1 (configuration not stated) | > 53.2 µM | 53.2 µM | 0.201 µM | > 49.6 µM | 0.63 µM |  |  |
| C=CC(O)(c1ccc(Br)cc1)c1ccnc(Nc2ccc(C#N)cc2)n1 (configuration not stated) | > 31.7 µM | 31.7 µM | 0.355 µM | > 31.7 µM |  |  |  |
| CC(O)(c1ccccc1)c1ccnc(Nc2ccc(C#N)cc2)n1 (configuration not stated) | > 45.4 µM | 45.4 µM | 0.288 µM | > 45.4 µM | 2 µM |  |  |
| CC(O)(c1ccc(Br)cc1)c1ccnc(Nc2ccc(C#N)cc2)n1 (configuration not stated) | > 28.2 µM | 28.2 µM | 0.305 µM | > 28.2 µM |  |  |  |
| CC(C)Nc1cccnc1N1CCN(C(=O)c2cc3cc(NS(C)(=O)=O)ccc3[nH]2)CC1 [DELAVIRDINE] | > 43.8 µM | > 43.8 µM | 0.81 µM |  |  |  |  |
| CC(O)(c1cccc(Br)c1)c1ccnc(Nc2ccc(C#N)cc2)n1 (configuration not stated) | > 33.7 µM | 33.7 µM | 0.191 µM | > 33.7 µM | 0.39 µM |  |  |
| Cc1cc(C#N)cc(C)c1Oc1nc(Nc2ccc(C#N)cc2)nc(N)c1Br [ETRAVIRINE] |  |  |  | > 27.8 µM |  |  |  |
| CC(O)(c1ccc(F)cc1)c1ccnc(Nc2ccc(C#N)cc2)n1 (configuration not stated) | > 43.1 µM | 43.1 µM | 2.5 µM | > 43.1 µM |  |  |  |
| COc1ccc(C(C)(O)c2ccnc(Nc3ccc(C#N)cc3)n2)cc1 (configuration not stated) | > 35.9 µM | 35.9 µM | 0.346 µM | > 35.9 µM |  |  |  |
| CCC(O)(c1ccc(Br)cc1)c1ccnc(Nc2ccc(C#N)cc2)n1 (configuration not stated) | > 31.3 µM | 31.3 µM | 2.07 µM | > 31.3 µM |  |  |  |
| CC(O)(c1ccnc(Nc2ccc(C#N)cc2)n1)c1cccc2ccccc12 (configuration not stated) | > 30.7 µM | 30.7 µM | 0.388 µM | > 30.7 µM |  |  |  |
| O=C1Nc2ccc(Cl)cc2[C@@](C#CC2CC2)(C(F)(F)F)O1 [EFAVIRENZ] |  | > 6.3 µM | 0.022 µM |  |  |  |  |
| Cc1cn([C@H]2C[C@H](N=[N+]=[N-])[C@@H](CO)O2)c(=O)[nH]c1=O [ZIDOVUDINE] | 0.008 µM | > 93.6 µM |  |  |  |  |  |
| Cc1cnc(Nc2ccc(C#N)cc2)nc1C(C)(O)c1ccc(F)cc1 (configuration not stated) |  | 61.5 µM | > 61.5 µM | > 61.5 µM |  |  |  |
| Cc1cc(C(C)(O)c2ccc(C(C)(C)C)cc2)nc(Nc2ccc(C#N)cc2)n1 (configuration not stated) | > 30.4 µM | 30.4 µM | 1.25 µM | > 30.4 µM |  |  |  |
| Cc1cc(C(C)(O)c2ccc(F)cc2)nc(Nc2ccc(C#N)cc2)n1 (configuration not stated) | > 38.2 µM | 38.2 µM | 3.55 µM | > 38.2 µM |  |  |  |
| Cc1ccc(C(C)(O)c2ccnc(Nc3ccc(C#N)cc3)n2)cc1 (configuration not stated) | > 39.9 µM | 39.3 µM | 0.067 µM | > 39.9 µM | 0.16 µM | 2 | 2 |
| N#Cc1ccc(Nc2nccc(C(O)(c3ccc(Br)cc3)C3CC3)n2)cc1 (configuration not stated) | > 33.2 µM | 33.2 µM | 3.11 µM | > 33.2 µM |  |  |  |
| CC(O)(c1cccc(Cl)c1)c1ccnc(Nc2ccc(C#N)cc2)n1 (configuration not stated) | > 37.5 µM | 37.5 µM | 0.257 µM | > 37.5 µM |  |  |  |
| CC(C)(C)c1ccc(C(C)(O)c2ccnc(Nc3ccc(C#N)cc3)n2)cc1 (configuration not stated) | > 31.8 µM | 31.8 µM | 0.564 µM | > 31.8 µM |  |  |  |
